A melting point compilation (Tetko et al.; mined from patent text by program, amines drawn as free bases though some values may be those of a salt)

Row | melting point [°C] | Compound
1 | 143 to 144 | COc1ccc(CC(=O)O)c(OCCCc2cn(-c3ccc(C(F)(F)F)cn3)nc2C(C)C)c1
2 | 95 | O=C(Nc1ccc(C2CN(C(=O)OCc3ccccc3)C2)c(F)c1)OCc1ccccc1
3 | 127 | CC(=O)COc1ccc(-c2ccc(=O)n(Cc3ccc(Cl)cc3F)c2)cc1
4 | 165 to 167 | CC(C)Cc1nn(C)c(=O)c2cc(C(O)c3cccc4ccccc34)sc12 (stereo not given)
5 | 237 to 240 | CN1CCn2c1c(-c1ccccc1)c1ncccc1c2=O
6 | 60 | O=C(c1cccs1)c1cnn2c(-c3cccc(-c4ccn(CC5CCC5)n4)c3)ccnc12
7 | 251 to 252 | CCn1cc(C(=O)O)c(=O)c2cc(F)c(-n3cccc3)cc21
8 | 66 to 67 | CC/C(=C\Cn1oc(=O)[nH]c1=O)c1cccc(OCc2nc(-c3ccc(C(F)(F)F)cc3)oc2C)c1
9 | 230 to 233 | Nc1nc(N)nc(-c2ccc(NS(=O)(=O)c3ccc4ccccc4c3)cc2)n1
10 | 104 to 108 | CC1c2cccc3c2N(CC3)c2ccccc2N1C(=O)CN(C)C (stereo not given)
11 | 118 to 120 | Nc1ncccc1-c1nc2ccc(-c3ccc(CO)cc3)nc2n1-c1ccc(CNC(=O)c2ccccc2)cc1
12 | 174 | O=c1c2cnc3ccc(F)cc3c2on1-c1ccccc1
13 | 88 to 89 | COc1ccc(C(=O)c2cccc([N+](=O)[O-])c2)cc1
14 | 76 to 77 | CN(C)c1cccc(CC(=O)C(F)(F)c2ccccc2)c1
15 | 168 to 174 | N#Cc1ccc2c(c1)ncn2-c1cccc(Br)c1
16 | > 300 | NC(=O)c1c[nH]c2c1ccc1c3ccccc3[nH]c12
17 | 251 to 252 | Cc1cc2c(-c3ccccc3Cl)c(C(=O)O)c(=O)n(C)c2cc1C
18 | 145 to 146 | COc1ccc(-c2cc(=O)n(CCN3CCOCC3)nc2-c2ccc(OC)cc2)cc1
19 | 78 | C=CC1(c2ccccc2)OC(C(=O)OC)Oc2ccc(Cl)cc21 (stereo not given)
20 | 206 to 208 | CSc1ccccc1-n1ncc(-c2ccc(S(C)(=O)=O)cc2)c(-c2ccc(F)cc2)c1=O

Row | melting point [°C] | Compound
21 | 203 to 204 | O=C(Nc1ccc(-n2nc(C(F)(F)F)cc2C(F)(F)F)cc1)Nc1cccc([N+](=O)[O-])c1
22 | 104 to 106 | CC(C)(C)C(F)(F)c1ccc(C[C@@H](NC(=O)c2ccc(F)c3ccccc23)[C@@H](O)c2cccc(Cl)c2)cc1 (racemic)
23 | > 290 | O=c1c(-c2ccccc2)coc2cc(O)c(Cl)c(Cl)c12
24 | 222 to 224 | CCCNC(=S)N1CCc2cc(S(=O)(=O)N3CC(c4ccccc4)NC3=O)ccc21 (stereo not given)
25 | 271 to 272 | O=C(Nc1ccc2[nH]nnc2c1)N1CCN(c2nc(-c3ccccc3)ns2)CC1
26 | 106 to 109 | O=C(O)C1OC(c2ccccc2)=NN1C(=O)CCS (stereo not given)
27 | 146 to 155 | COC(=O)C1(CN2CCC(Cc3ccc(F)cc3)CC2)CC(c2ccc3[nH]c(=O)oc3c2)=NO1 (stereo not given)
28 | 138 to 139 | Cc1cc(C2=C(c3cccc(F)c3)C(=O)C(C)(C)O2)ccc1S(C)(=O)=O
29 | 45 to 46 | Cc1cc(SCc2sc(-c3ccc(F)cc3)nc2C)ccc1OCC(=O)O
30 | 113 to 120 | Oc1ccc(/C(=C(\c2ccccc2)C(F)(F)F)c2ccccc2)cc1
31 | 102 to 103 | CCC(CC)c1nn(-c2ccc(C(F)(F)F)cn2)cc1CCCOc1c(F)cccc1CC(=O)O
32 | 205 to 206 | COC(=O)Cn1c(=O)[nH]c2ccccc2c1=O
33 | 56 to 57 | N[C@@H](COc1cccc(Cl)n1)c1ccccc1
34 | 201 to 202 | CCCC(=O)Nc1ccc(OCc2nc3cc(F)ccc3s2)cc1
35 | 89 to 90 | Brc1nc(Br)n(COCc2ccccc2)c1Sc1ccccc1
36 | 162 to 164 | CCOCc1nc2c(N)nc3cc(OCc4cccc([N+](=O)[O-])c4)ccc3c2n1CC(C)C
37 | 190 | O=C(Nc1cc(Cl)ccn1)c1ccn2c1CSC2c1cccnc1 (stereo not given)
38 | > 250 | COc1ccc(-c2cnc3cc4[nH]ncc4cc3n2)cc1F
39 | 83.5 to 86 | C=C(C(=O)c1ccc(OC)c(Cl)c1Cl)c1ccccc1
40 | 251 to 253 | CC(C)n1nc(-c2c(-c3ccccc3)nc(N)nc2N2CCOCC2)ccc1=O

More lines, now with the values behind:

Row | Compound | melting point [°C]
41 | COc1ccc2c(c1)C(C(=O)N(Cc1ccc(S(C)(=O)=O)cc1)c1ccc(C(C)C)cc1)CCC2 (stereo not given) | 131 to 132
42 | COC(CNC(=S)N1CCN(c2ccc(O)cc2)CC1)OC | 161
43 | CCOC(=O)c1ccnn1-c1c(Cl)cccc1Cl | 51 to 53
44 | O=C(CNC(=S)c1cccnc1)NC1CC1 | 152 to 153
45 | C=CCNc1nc(NCCCC)c2scc(C)c2n1 | 68 to 70
46 | C[C@H](N)C(=O)NC1N=C(C2CCCCC2)c2ccccc2N(C)C1=O (stereo not given in full) | 205 to 206
47 | O=C[C@H]1CC[C@H](SCc2ccc(Cl)cc2)CC1 | 44 to 46
48 | COc1ccc(C(=O)Nc2c[nH]nc2C(=O)NCCC#N)cc1 | 199 to 200
49 | CC1(C)O[C@H]2[C@H](OCc3ccccc3)O[C@H](C(N)=O)[C@H]2O1 | 78
50 | CCCCOc1c(CN2C(=O)c3ccccc3C2=O)n(CCC(=O)N2CCCC2)c(=O)c2cc(Cl)c(Cl)cc12 | 222
51 | CCOC(=O)c1cc2c(O)nncc2nc1N1CCCCC1 | 178 to 179
52 | Nc1ccc(-c2cccc(Cl)c2)cc1C(O)(C1CC1)C1CC1 | 90 to 92
53 | O=C(CCCl)c1ccc2c(c1)Cc1cc(C(=O)CCCl)ccc1O2 | 180 to 181
54 | COc1cc2c(cc1OC)CN(c1nc(N)nc3cc(OC)c(OC)cc13)CC2 | 245
55 | CC(O)c1ccc(-c2ccc(O)cc2)cc1 (stereo not given) | 159 to 160
56 | O=C(CCCO)NCc1ccccc1 | 70 to 72
57 | CCCCCCCCCCCCCCCCSCC(CN)NC(=O)OC(C)(C)C (stereo not given) | 46 to 47
58 | O=C(O)c1ccc(NC(=O)C(F)(F)F)cc1 | 277 to 278
59 | CNC(=O)C(Cc1ccc(OC)cc1)NC(=O)C(CC(C)C)C(S)CC(=O)NCC(N)=O (stereo not given) | 247 to 252
60 | Cc1nc(Cl)ccc1C#N | 104 to 105

Row | Compound | melting point [°C]
61 | CCCCCCCCCC/C=C\COCc1ccc(CCC(=O)O)cc1 | 35 to 36
62 | COc1ccc(C(=O)c2cc(-c3ccncc3)c(N3CCOCC3)s2)cc1 | 193
63 | CCOC(=O)c1c(N)c(Br)cc2c1OCO2 | 81 to 83
64 | CCCCc1nc2cccc(C(=O)OCOC(=O)C(C)(C)C)c2n1Cc1ccc(-c2ccccc2-c2nnn[nH]2)cc1 | 102 to 105
65 | COc1cc(N2CCN(c3c(C)c(C)c4c(c3C)CC(C)(C)O4)CC2)ccc1Cl | 168 to 171
66 | O=c1cc(C(F)(F)F)[nH]c(=O)n1-c1ccc(F)c(F)c1F | 137 to 138
67 | COc1cc2ncc(C#N)c(Nc3cc(C)ccc3O)c2cc1OC | 198 to 200
68 | CC(=O)c1nn(-c2c(Cl)cc(C(F)(F)F)cc2Cl)cc1C1CC1(Br)Br (stereo not given) | 150
69 | CS(=O)(=O)c1ccc(C(CC2CCCC2)C(=O)O)cc1C(F)(F)F (stereo not given) | 100 to 102
70 | CCCNc1c(NCCCOc2cccc(CN3CCCCC3)c2)c(=O)c1=O | 158 to 160
71 | COc1ccccc1Oc1c(NS(=O)(=O)c2ccc(C(C)(C)C)cc2)nc(CO)nc1OCCOc1ncc(Br)cn1 | 161 to 162
72 | CC(C)(c1cc(F)cc([N+](=O)[O-])c1O)c1cc(F)cc([N+](=O)[O-])c1O | 138
73 | CCN(CC)CC1(C)Cc2c(C)c(N3CCN(c4ccc(OC)cc4)CC3)c(C)c(C)c2O1 (stereo not given) | 103 to 106
74 | C=C(c1ccc(OC)c(N)c1)c1ccc(OC)c(OCC)c1 | 91 to 93
75 | COc1cc(OC)nc(NC(=O)NS(=O)(=O)c2ccccc2OS(=O)(=O)N(C)C)n1 | 165 to 168
76 | O=c1[nH]c(-c2ccc(Cl)cc2)c(CN2CCOCC2)s1 | 206
77 | COc1ccc(C=C2CS(=O)(=O)CC(=Cc3ccc(OC)cc3)C2(O)NC2=NCCS2)cc1 (stereo not given) | 194 to 196
78 | Cc1nc(C)c(CCl)cc1CCl | 108 to 109
79 | CCN(CC)C(=O)Cc1cc(C(C)(C)C)c(O)c(C(C)(C)C)c1 | 111 to 113
80 | CC(=O)NC[C@H]1CN(c2ccc(N3C=CS(=O)(=O)CC3)c(F)c2)C(=O)O1 | 193 to 194

Row | Compound | melting point [°C]
81 | CCCc1c(OCCCS(=O)(=O)c2ccc(C(=O)NCC(=O)O)cc2)ccc(C(C)=O)c1O | 171 to 173
82 | CCCCc1nc2c(C(F)(F)F)cccc2c(O)c1C(=O)O | 140 to 141
83 | COc1ccc(/C(C)=C/C(=O)O)cc1OC | 73 to 74
84 | Cc1nc(O)c([N+](=O)[O-])c(N2CCc3ccccc3CC2)n1 | > 200
85 | N=C(NCc1ccncc1)NN=Cc1c(Cl)cccc1Cl | 159 to 161
86 | CC[C@H](NC(=O)OC(C)(C)C)c1nc2c(C(F)(F)F)cccc2c(O)c1C(=O)Nc1nccs1 | 260 to 262
87 | CCOC(=O)C1=C(N)NC(N)=C(C(=O)OC(C)C)C1c1ccccc1[N+](=O)[O-] (stereo not given) | 110
88 | CC(C)CCOc1c(Sc2ccc(C(C)(C)C)cc2)c(Sc2ccccc2N)c(OCCC(C)C)c2c1C(=N)NC2=N | 198 to 199
89 | COC(=O)Nc1ccc(C(=O)N(C)C)c(S(=O)(=O)NC(C)(C)C)c1 | 184 to 188
90 | COc1cc2c(cc1OC)NC(C)C(=O)N2 (stereo not given) | 151
91 | CN1CCC(Nc2ccc([N+](=O)[O-])cc2)CC1 | 153 to 155
92 | CCCCCC[C@H]1C[C@@H](C)OC1=O (relative stereo) | 28.5
93 | CC(=O)NC(C)Cc1ccccc1 (stereo not given) | 91 to 93
94 | COc1ccc(C(=C(C=O)c2nnnn2C)c2ccc(OC)cc2)cc1 | 130 to 131
95 | Clc1cccc(Nc2ncnc3[nH]nc(NCc4ccc(-c5nccs5)cc4)c23)c1 | 241 to 243
96 | CC1CN(C(=O)Cl)NC1=O (stereo not given) | 145
97 | O=C(Nc1nccs1)c1cnc2c(C(F)(F)F)cccc2c1O | 325
98 | COCCc1nc2c(N)nc3ccccc3c2n1CCOCCS(C)(=O)=O | 142 to 144
99 | CCOC(=O)C=Cc1cc2cc(OC)ccc2nc1Cl | 113 to 114
100 | CC(N)=CC(=O)OCC1CC1 | 55 to 58
